From patent US10219513B2, “Safening 4-amino-3-chloro-6-(4-chloro-2-fluoro-3-methoxyphenyl)-5-fluoropyridine-2-carboxylic acid compositions in Brassica species and methods of use thereof” (Dow AgroSciences LLC, priority 2016, dated 2019)
Several values for one entry are separate records, joined by “and”; a condition that tells them apart may be missing. Equal values may be shown once.

Tests used:
[1] = system: Brassica alboglabra (kale/Chinese kale, BRSAG); assay: Greenhouse postemergence application, visual injury after 20-22 d, BRSAG
Method in brief: (§1)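 Brassica plants at second–third true leaf stage sprayed postemergence with florpyrauxifen-benzyl alone or in mixtures with clopyralid, quinclorac or safeners in 1.25% v/v crop oil concentrate at 187 L/ha. Visual injury scored 0–100% versus solvent-sprayed controls after 20-22 d; expected mixture effects calculated by Colby's equation.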

[2] = system: Brassica napus var. napobrassica (rutabaga, BRSNA); assay: Greenhouse postemergence application, visual injury after 20-22 d, BRSNA
Method in brief: as §1

[3] = system: Brassica napus (Nexera canola, BRSNN-NEX); assay: Greenhouse postemergence application, visual injury after 20-22 d, BRSNN-NEX
Method in brief: as §1

[4] = system: Brassica napus (winter oilseed rape, BRSNW); assay: Greenhouse postemergence application, visual injury after 20-22 d, BRSNW
Method in brief: as §1

[5] = system: Brassica napus (Roundup Ready canola, RR-BRSNN); assay: Greenhouse postemergence application, visual injury after 20-22 d, RR-BRSNN
Method in brief: as §1

[6] = florpyrauxifen-benzyl 2.5 g ai/ha alone
[7] = florpyrauxifen-benzyl 5 g ai/ha alone
[8] = florpyrauxifen-benzyl 10 g ai/ha alone
[9] = florpyrauxifen-benzyl alone 2.5 g ai/ha
[10] = florpyrauxifen-benzyl alone 5 g ai/ha
[11] = florpyrauxifen-benzyl alone 10 g ai/ha
[12] = postemergence application, greenhouse, application rate (g ai/ha) varies

COc1c(Cl)ccc(-c2nc(C(=O)OCc3ccccc3)c(Cl)c(N)c2F)c1F [Florpyrauxifen-benzyl, benzyl 4-amino-3-chloro-6-(4-chloro-2-fluoro-3-methoxyphenyl)-5-fluoropyridine-2-carboxylate]
% Visual Injury Obs ([1]; BRSAG, 2.5 g ai/ha): 5% | % Visual Injury Obs ([1]; BRSAG, 5 g ai/ha): 3% | % Visual Injury Obs ([1]; BRSAG, 10 g ai/ha): 7% | Obs % visual injury ([1]; BRSAG, florpyrauxifen-benzyl alone 2.5 g ai/ha): 5% | Obs % visual injury ([1]; BRSAG, florpyrauxifen-benzyl alone 5 g ai/ha): 3% | Obs % visual injury ([1]; BRSAG, florpyrauxifen-benzyl alone 10 g ai/ha): 7% | % Visual Injury BRSAG Obs [1, 6]: 5% | % Visual Injury Obs [1, 6]: 5% | % Visual Injury BRSAG Obs [1, 7]: 3% | % Visual Injury Obs [1, 7]: 3% | % Visual Injury BRSAG Obs [1, 8]: 7% | % Visual Injury Obs [1, 8]: 7% | Obs % visual injury BRSAG [1, 9]: 5% | Obs % visual injury BRSAG [1, 10]: 3% | Obs % visual injury BRSAG [1, 11]: 7% | % Visual Injury BRSAG Obs [1, 12]: 3% and 7% and 5% | % Visual Injury Obs ([2]; BRSNA, 2.5 g ai/ha): 4% | % Visual Injury Obs ([2]; BRSNA, 5 g ai/ha): 4% | % Visual Injury Obs ([2]; BRSNA, 10 g ai/ha): 13% | Obs % visual injury ([2]; BRSNA, florpyrauxifen-benzyl alone 2.5 g ai/ha): 4% | Obs % visual injury ([2]; BRSNA, florpyrauxifen-benzyl alone 5 g ai/ha): 4% | Obs % visual injury ([2]; BRSNA, florpyrauxifen-benzyl alone 10 g ai/ha): 13% | % Visual Injury BRSNA Obs [2, 6]: 4% | % Visual Injury Obs [2, 6]: 4% | % Visual Injury BRSNA Obs [2, 7]: 4% | % Visual Injury Obs [2, 7]: 4% | % Visual Injury BRSNA Obs [2, 8]: 13% | % Visual Injury Obs [2, 8]: 13% | Obs % visual injury BRSNA [2, 9]: 4% | Obs % visual injury BRSNA [2, 10]: 4% | Obs % visual injury BRSNA [2, 11]: 13% | % Visual Injury BRSNA Obs [2, 12]: 4% and 13% | % Visual Injury Obs ([3]; BRSNN-NEX, 2.5 g ai/ha): 7% | % Visual Injury Obs ([3]; BRSNN-NEX, 5 g ai/ha): 12% | % Visual Injury Obs ([3]; BRSNN-NEX, 10 g ai/ha): 19% | Obs % visual injury ([3]; BRSNN-NEX, florpyrauxifen-benzyl alone 2.5 g ai/ha): 7% | Obs % visual injury ([3]; BRSNN-NEX, florpyrauxifen-benzyl alone 5 g ai/ha): 12% | Obs % visual injury ([3]; BRSNN-NEX, florpyrauxifen-benzyl alone 10 g ai/ha): 19% | % Visual Injury BRSNN-NEX Obs [3, 6]: 7% | % Visual Injury Obs [3, 6]: 7% | % Visual Injury BRSNN-NEX Obs [3, 7]: 12% | % Visual Injury Obs [3, 7]: 12% | % Visual Injury BRSNN-NEX Obs [3, 8]: 19% | % Visual Injury Obs [3, 8]: 19% | Obs % visual injury BRSNN-NEX [3, 9]: 7% | Obs % visual injury BRSNN-NEX [3, 10]: 12% | Obs % visual injury BRSNN-NEX [3, 11]: 19% | % Visual Injury Obs ([4]; BRSNW, 2.5 g ai/ha): 8% | % Visual Injury Obs ([4]; BRSNW, 5 g ai/ha): 13% | % Visual Injury Obs ([4]; BRSNW, 10 g ai/ha): 18% | Obs % visual injury ([4]; BRSNW, florpyrauxifen-benzyl alone 2.5 g ai/ha): 8% | Obs % visual injury ([4]; BRSNW, florpyrauxifen-benzyl alone 5 g ai/ha): 13% | Obs % visual injury ([4]; BRSNW, florpyrauxifen-benzyl alone 10 g ai/ha): 18% | % Visual Injury BRSNW Obs [4, 6]: 8% | % Visual Injury Obs [4, 6]: 8% | % Visual Injury BRSNW Obs [4, 7]: 13% | % Visual Injury Obs [4, 7]: 13% | % Visual Injury BRSNW Obs [4, 8]: 18% | % Visual Injury Obs [4, 8]: 18% | Obs % visual injury BRSNW [4, 9]: 8% | Obs % visual injury BRSNW [4, 10]: 13% | Obs % visual injury BRSNW [4, 11]: 18% | % Visual Injury BRSNW Obs [4, 12]: 8% and 13% and 18% | % Visual Injury Obs ([5]; RR-BRSNN, 2.5 g ai/ha): 6% | % Visual Injury Obs ([5]; RR-BRSNN, 5 g ai/ha): 9% | % Visual Injury Obs ([5]; RR-BRSNN, 10 g ai/ha): 19% | Obs % visual injury ([5]; RR-BRSNN, florpyrauxifen-benzyl alone 2.5 g ai/ha): 6% | Obs % visual injury ([5]; RR-BRSNN, florpyrauxifen-benzyl alone 5 g ai/ha): 9% | Obs % visual injury ([5]; RR-BRSNN, florpyrauxifen-benzyl alone 10 g ai/ha): 19% | % Visual Injury Obs [5, 6]: 6% | % Visual Injury RR-BRSNN Obs [5, 6]: 6% | % Visual Injury Obs [5, 7]: 9% | % Visual Injury RR-BRSNN Obs [5, 7]: 9% | % Visual Injury Obs [5, 8]: 19% | % Visual Injury RR-BRSNN Obs [5, 8]: 19% | Obs % visual injury RR-BRSNN [5, 9]: 6% | Obs % visual injury RR-BRSNN [5, 10]: 9% | Obs % visual injury RR-BRSNN [5, 11]: 19%
